IC50 and melting point data for 41 compounds are collected here from patent publication US20150141411A1, “SUBSTITUTED 3,4-DIHYDRO-2H-PYRIDO[1,2-A]PYRAZINE-1,6-DIONE DERIVATIVES USEFUL FOR THE TREATMENT OF (INTER ALIA) ALZHEIMER'S DISEASE” (Janssen Pharmaceuticals, Inc., priority 2012, published 2015).

SMILES strings stand for the structures. Some results are limits rather than exact numbers.

Data set [1] deals with T1, γ-secretase (Homo sapiens, UniProt P49768).
T1 construct: endogenous in cells; host or cells: SKNBE2 human neuroblastoma cells (carrying hAPP 695 wild type as substrate)
The data set is described as follows: Screening for γ-secretase-modulating activity: Aβ42 in supernatant of SKNBE2 cells carrying hAPP 695 wild type (Alphalisa). Particulars: SKNBE2 human neuroblastoma cells carrying hAPP 695 wild type, overnight incubation, Aβ42 in cell supernatant. It is filed as cell-based. The essentials:
(§1)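 SKNBE2 neuroblastoma cells expressing wild-type hAPP 695 plated at 10^4 cells/well in Ultraculture with test compound, incubated overnight at 37° C. Aβ42 (C-terminal/N-terminal antibody pair) and Aβtotal (N-terminal/4G8 pair) in supernatant quantified by AlphaLISA. IC50 from 4-parameter fit of percent of compound-free control.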
A general note: Bead proximity is the source of the signal in Alpha formats.

Data set [2] deals with T1, γ-secretase. The data set is described as follows: Screening for γ-secretase-modulating activity: Aβtotal in supernatant of SKNBE2 cells carrying hAPP 695 wild type (Alphalisa). Particulars: SKNBE2 human neuroblastoma cells carrying hAPP 695 wild type, overnight incubation, Aβtotal in cell supernatant. The data set is classed as cell-based. The essentials: as §1

One may read the IC50 as the concentration that gives 50% inhibition. As usually defined, the melting point is the temperature, or range, at which the solid turns liquid. `Cc1cn(-c2ccc3n(c2=O)CCN(Cc2cn(C)c4cc(Cl)c(Cl)cc24)C3=O)cn1` [compound 254]: the melting point is 217 °C. This compound had an IC50 against γ-secretase [1] of 20 nM. The IC50 on γ-secretase [2] stood at 6000 nM.
In turn, `Cc1cn(-c2ccc3n(c2=O)CCN(CCC2CCCCC2)C3=O)cn1` [compound 18] came in with a melting point of 192.6 °C. Half-maximal inhibition against γ-secretase [1] (IC50) required 1700 nM. Besides, at γ-secretase [2], the IC50 is more than 10000 nM.
Consider `Cc1cn(-c2ccc3n(c2=O)CCN(Cc2ccc(F)cc2C)C3=O)cn1` [compound 73], for which the melting point turned out to be 227.4 °C. The compound also gave an IC50 on γ-secretase [1] of 2570 nM. Also, the IC50 at γ-secretase [2] is more than 10000 nM.
Consider `Cc1cn(-c2ccc3n(c2=O)CCN(C(C)Cc2cc(C(F)(F)F)cc(C(F)(F)F)c2)C3=O)cn1` (stereo not drawn) [compound 172], for which the melting point was determined as 182.3 °C. In addition, the IC50 against γ-secretase [1] was found to be 250 nM. Besides, on γ-secretase [2], the IC50 is more than 10000 nM.
On to `Cc1cn(-c2ccc3n(c2=O)CCN(C2CCc4c2cccc4C(F)(F)F)C3=O)cn1` (stereo not drawn) [compound 105], for which the melting point amounted to 253.5 °C. In addition, at γ-secretase [1], it took 2820 nM to reach half-maximal inhibition (IC50). At γ-secretase [2], the IC50 was more than 10000 nM.
The compound `Cc1cn(-c2ccc3n(c2=O)CCN(Cc2ccccc2N2CCCCC2)C3=O)cn1` [compound 100] displayed a melting point of 167.4 °C. Moreover, half-maximal inhibition on γ-secretase [1] (IC50) was put at 760 nM. At γ-secretase [2], the IC50 was more than 10000 nM.
`Cc1cn(-c2ccc3n(c2=O)CCN(Cc2ccc(Cl)c(Cl)c2)C3=O)cn1` [compound 38] yielded a melting point of 190.8 °C. Besides, the midpoint of inhibition on γ-secretase [1], the IC50, lay at 330 nM. At γ-secretase [2], this compound displayed an IC50 of 3630 nM.
Compound `Cc1cn(-c2ccc3n(c2=O)CCN(c2cccc(C(F)(F)F)c2F)C3=O)cn1` [compound 55] came in with a melting point of 227.5 °C. The IC50 against γ-secretase [1] was determined as 3800 nM. This compound also displayed an IC50 against γ-secretase [2] of more than 10000 nM.
Compound `Cc1cn(-c2ccc3n(c2=O)CCN(Cc2cccc(N4CCOCC4)c2)C3=O)cn1` [compound 95] registered a melting point of 181.6 °C. The compound further showed an IC50 on γ-secretase [1] of 7590 nM. The IC50 at γ-secretase [2] is more than 10000 nM.
In the case of `Cc1cn(-c2ccc3n(c2=O)C[C@@H](C)N(CCc2cc(C(F)(F)F)ccc2F)C3=O)cn1` [compound 232], the melting point was determined as 148 °C. This compound also had a 50% inhibitory concentration (IC50) against γ-secretase [1] of 210 nM. At γ-secretase [2], the IC50 is more than 10000 nM.
For `Cc1cn(-c2ccc3n(c2=O)C[C@@H](C)N(Cc2cn(C)c4cc(F)c(Cl)cc24)C3=O)cn1` [compound 196], the melting point amounted to 187 °C. At γ-secretase [1], this compound yielded an IC50 of 20 nM. This compound had an IC50 at γ-secretase [2] of 7410 nM.
Compound `Cc1cn(-c2ccc3n(c2=O)CCN(C(C)c2cccc(C(F)(F)F)c2)C3=O)cn1` (single isomer, unassigned) [11b] came in with a melting point of 181 °C. The same compound came in with an IC50 against γ-secretase [1] of 7760 nM. Also, the IC50 at γ-secretase [2] was more than 10000 nM.
For `Cc1cn(-c2ccc3n(c2=O)C[C@@H](C)N(Cc2cccc(Cl)c2C)C3=O)cn1` [compound 40] the same measures were 182.1 °C, 510 nM and more than 10000 nM.
On to `Cc1cn(-c2c(Br)cc3n(c2=O)C[C@@H](C)N(Cc2cc(C(F)(F)F)cc(C(F)(F)F)c2)C3=O)cn1` [compound 157], for which the melting point came to 147.7 °C. The IC50 against γ-secretase [1] turned out to be 2040 nM. On γ-secretase [2], this compound registered an IC50 of 8710 nM.
In the case of `Cc1cn(-c2ccc3n(c2=O)CCN(Cc2cccc(N4CCCCC4)c2C)C3=O)cn1` [compound 97], the melting point came out at 207.8 °C. This compound also returned an IC50 at γ-secretase [1] of 440 nM. Also, the half-inhibitory concentration (IC50) at γ-secretase [2] is more than 10000 nM.
On to `Cc1cn(-c2ccc3n(c2=O)CCN(Cc2cccc(Cl)c2Cl)C3=O)cn1` [compound 36], for which the melting point was 224.9 °C. For the same compound, the IC50 against γ-secretase [1] was found to be 510 nM. This compound also displayed an IC50 against γ-secretase [2] of more than 10000 nM.
On to `COc1ccc(CN2C(=O)c3ccc(-n4cnc(C)c4)c(=O)n3C[C@H]2C)cc1C(F)(F)F` [compound 67], for which the melting point came to 140.2 °C. This compound also had an IC50 against γ-secretase [1] of 560 nM. At γ-secretase [2], this compound gave an IC50 of more than 10000 nM.
Take `Cc1cn(-c2ccc3n(c2=O)CCN(c2cccc(C(F)(F)F)c2C)C3=O)cn1` [compound 57]: the melting point worked out at 248.6 °C. Further, the IC50 at γ-secretase [1] is more than 10000 nM. In addition, at γ-secretase [2], the IC50 was more than 10000 nM.
In turn, `Cc1cn(-c2ccc3n(c2=O)C[C@@H](C)N(CC2(c4ccccc4C)CC2)C3=O)cn1` [compound 20] displayed a melting point of 199.8 °C. This compound also gave an IC50 at γ-secretase [1] of 1550 nM. The compound also showed an IC50 against γ-secretase [2] of more than 10000 nM.
In the same order, the values of `Cc1cn(-c2ccc3n(c2=O)C[C@@H](C)N(CCc2cccc(C(F)(F)F)c2C)C3=O)cn1` [compound 229] are 129 °C, 130 nM and more than 10000 nM.
In turn, `Cc1cn(-c2ccc3n(c2=O)CCN(Cc2cccc(Cl)c2)C3=O)cn1` [compound 25] gave a melting point of 176.7 °C. Besides, inhibition at γ-secretase [1] was half-maximal at 1700 nM (IC50). Also, on γ-secretase [2], the IC50 was more than 10000 nM.
`Cc1ncn(-c2ccc3n(c2=O)CC(C)N(Cc2cc(C(F)(F)F)cc(C(F)(F)F)c2)C3=O)n1` (stereo not drawn) [compound 155] came in with a melting point of 160.9 °C. For the same compound, it took 510 nM to reach half-maximal inhibition against γ-secretase [1] (IC50). On γ-secretase [2], this compound yielded an IC50 of more than 10000 nM.
For the compound `Cc1cn(-c2ccc3n(c2=O)C[C@@H](C)N(Cc2cn(C)c4cc(C(F)(F)F)ccc24)C3=O)cn1` [compound 228], the melting point was 161 °C. On γ-secretase [1], this compound registered an IC50 of 50 nM. At γ-secretase [2], this compound had an IC50 of more than 10000 nM.
Consider `Cc1cn(-c2ccc3n(c2=O)C[C@@H](C)N(Cc2ccccc2)C3=O)cn1` [compound 124], for which the melting point turned out to be 136.5 °C. This compound showed a half-maximal inhibitory concentration (IC50) on γ-secretase [1] of 2340 nM. The compound also returned an IC50 against γ-secretase [2] of more than 10000 nM.
For the compound `COc1cc(CN2C(=O)c3ccc(-n4cnc(C)c4)c(=O)n3C[C@H]2C)cc(C(F)(F)F)c1` [compound 68], the melting point was 132.4 °C. The IC50 on γ-secretase [1] was found to be 190 nM. The compound also had an IC50 against γ-secretase [2] of more than 10000 nM.
With `Cc1cn(-c2ccc3n(c2=O)C[C@@H](C)N(Cc2ccc(C(F)(F)F)cc2)C3=O)cn1` [compound 43], the melting point was determined as 164.9 °C. Moreover, on γ-secretase [1], it took 620 nM to reach half-maximal inhibition (IC50). In addition, the IC50 against γ-secretase [2] was more than 10000 nM.
Take `Cc1cn(-c2ccc3n(c2=O)CCN(Cc2cccc(C4CC4)c2)C3=O)cn1` [compound 101]: the melting point came out at 121.5 °C. In addition, the IC50 against γ-secretase [1] was 740 nM. In addition, the IC50 against γ-secretase [2] is more than 10000 nM.
In the same order, the values of `Cc1cn(-c2ccc3n(c2=O)C[C@@H](C)N(Cc2cc(C(F)(F)F)ccc2F)C3=O)cn1` [compound 70] are 108.5 °C, 580 nM and more than 10000 nM.
Regarding `Cc1cn(-c2ccc3n(c2=O)CCN(Cc2cccc(C(F)(F)F)c2)C3=O)cn1` [compound 42], the melting point amounted to 183.4 °C. For the same compound, the IC50 on γ-secretase [1] worked out at 740 nM. For the same compound, the half-maximal inhibitory concentration (IC50) against γ-secretase [2] is more than 10000 nM.
On to `Cc1cn(-c2ccc3n(c2=O)CCN(C(C)c2cc(Cl)cc(Cl)c2)C3=O)cn1` (single isomer, unassigned) [compound 208], for which the melting point was 206 °C. On γ-secretase [1], this compound came in with an IC50 of 3890 nM. In addition, at γ-secretase [2], the IC50 was more than 10000 nM.
In the same order, the values of `Cc1cn(-c2ccc3n(c2=O)CCN(Cc2cccc(N4CCCCC4)c2)C3=O)cn1` [compound 96] are 163.6 °C, 760 nM and more than 10000 nM.
In the same order, the values of `Cc1cn(-c2ccc3n(c2=O)CCN(CCOCc2ccc(Cl)cc2)C3=O)cn1` [compound 27] are 168 °C, 590 nM and more than 10000 nM.
In the same order, the values of `Cc1cn(-c2ccc3n(c2=O)C[C@@H](C)N(Cc2cccc(Cl)c2F)C3=O)cn1` [compound 35] are 182.2 °C, 1020 nM and more than 10000 nM.
Consider `CCn1cc(CN2C(=O)c3ccc(-n4cnc(C)c4)c(=O)n3C[C@H]2C)c2cc(OC)c(Cl)cc21` [compound 251], for which the melting point was 150 °C. Further, the IC50 against γ-secretase [1] amounted to 20 nM. 6000 nM corresponded to half-maximal inhibition at γ-secretase [2] (IC50).
In turn, `Cc1cn(-c2ccc3n(c2=O)CCN(Cc2cccc(OC(F)(F)F)c2)C3=O)cn1` [compound 74] yielded a melting point of 163.4 °C. In addition, the IC50 on γ-secretase [1] was found to be 380 nM. Further, at γ-secretase [2], the IC50 is more than 10000 nM.
For `Cc1cn(-c2ccc3n(c2=O)CCN(Cc2cccc(C(F)(F)F)c2F)C3=O)cn1` [compound 56] the same measures were 197.6 °C, 1700 nM and more than 10000 nM.
`Cc1cn(-c2ccc3n(c2=O)C[C@@H](C)N(Cc2ccc4scc(Br)c4c2)C3=O)cn1` [compound 115]: the melting point was 101.4 °C. This compound gave an IC50 against γ-secretase [1] of 140 nM. In addition, on γ-secretase [2], the IC50 is more than 10000 nM.
In turn, `Cc1cn(-c2ccc3n(c2=O)CCN(CC2(c4ccc(Cl)cc4)CC2)C3=O)cn1` [compound 29] gave a melting point of 227.1 °C. Also, the IC50 against γ-secretase [1] stood at 270 nM. On γ-secretase [2], this compound gave an IC50 of more than 10000 nM.
In the same order, the values of `Cc1cn(-c2ccc3n(c2=O)CCN(C(C)c2ccc(Cl)c(Cl)c2)C3=O)cn1` (single isomer, unassigned) [9a] are 206.8 °C, 4470 nM and more than 10000 nM.
In the same order, the values of `Cc1cn(-c2ccc3n(c2=O)C[C@@H](C)N(Cc2ccc4c(c2)OC(F)(F)O4)C3=O)cn1` [compound 113] are 136.1 °C, 400 nM and more than 10000 nM.
For the compound `Cc1cn(-c2ccc3n(c2=O)C[C@@H](C)N(C(C)c2cc(Cl)cc(Cl)c2)C3=O)cn1` (single isomer, unassigned) [compound 211], the melting point came to 146 °C. The midpoint of inhibition at γ-secretase [1], the IC50, lay at 90 nM. Besides, on γ-secretase [2], the concentration for half-maximal inhibition (IC50) was more than 10000 nM.
